# Paper PMC4167585 (Cell, 2014)
# Key:
# EXP1 = EXP1 (Plasmodium falciparum, UniProt Q8IIF0); experiment: inhibition of GSH-CDNB conjugation, Dixon plot; assay type: biochemical
# [1] = system: C=CC1=C(C)C2=Cc3c(C=C)c(C)c4[n]3[Fe+][n]3c(c(C)c(CCC(=O)O)c3=CC3=NC(=C4)C(C)=C3CCC(=O)O)=CC1=N2; experiment: purified protein; details: 2 mM GSH, 100 nM enzyme, pH 6.5, 0.1% Triton X-100
# [2] = target: T1, human microsomal GST (MGST1) (Homo sapiens, UniProt P10620); experiment: GST activity toward CDNB; assay type: biochemical; details: GSH co-substrate
# T1 sequence (P10620 1-155): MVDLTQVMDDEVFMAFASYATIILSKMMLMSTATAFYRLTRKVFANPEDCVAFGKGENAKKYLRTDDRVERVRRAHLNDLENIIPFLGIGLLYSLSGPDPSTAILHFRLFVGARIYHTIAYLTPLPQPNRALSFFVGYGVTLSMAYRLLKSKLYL
molecule,measurement,setting,value
C=CC1=C(C)C2=Cc3c(C=C)c(C)c4[n]3[Fe+][n]3c(c(C)c(CCC(=O)O)c3=CC3=NC(=C4)C(C)=C3CCC(=O)O)=CC1=N2 [hematin],Ki,EXP1,170 nM
EXP1 (Plasmodium falciparum 3D7),Km,[1],0.251 µM
same,kcat,[1],7.7 s⁻¹
"O=[N+]([O-])c1ccc(Cl)c([N+](=O)[O-])c1 [1-chloro-2,4-dinitrobenzene]",GST activity toward CDNB,[2],"comparable to that of the human microsomal GST (MGST1, Figure S3D-F)"
